Experimental data: patent publication US9096560B2, “5-heterocyclylalkyl-3-hydroxy-2-phenylcyclopent-2-enones as herbicides” (Syngenta Limited, priority 2008, dated 2015)

Tests used:
Assay type in all cases: in vivo
Lolium perenne (LOLPE) [1] = assay: Example B pre-emergence herbicidal test, LOLPE; settings: Lolium perenne, 312 h, rate 250 g/ha, evaluated after 13 days, 100=total damage to plant, 0=no damage to plant
Description: (§1) Seeds of a variety of test species were sown in standard soil in pots. After cultivation for one day (pre-emergence) or after 8 days cultivation (post-emergence) under controlled conditions in a glasshouse (at 24/16° C., day/night; 14 hours light; 65% humidity), the plants were sprayed with an aqueous spray solution derived from the formulation of the technical active ingredient in acetone/water (50:50) solution containing 0.5% Tween 20 (polyoxyethelyene sorbitan monolaurate, CAS RN 9005-64-5). The test plants were then grown in a glasshouse under controlled conditions in a glasshouse (at 24/16° C., day/night; 14 hours light; 65% humidity) and watered twice daily. After 13 days for pre and post-emergence, the test was evaluated (100=total damage to plant; 0=no damage to plant). Lolium perenne (LOLPE), Alopecurus myosuroides (ALOMY), Echinochloa crus-galli (ECHCG), Avena fatua (AVEFA) Pre-Emergence Activity

[2] = tested on: Alopecurus myosuroides (ALOMY); assay: Example B pre-emergence herbicidal test, ALOMY; settings: Alopecurus myosuroides, 312 h, rate 250 g/ha, evaluated after 13 days, 100=total damage to plant, 0=no damage to plant
Description: as §1

[3] = tested on: Echinochloa crus-galli (ECHCG); assay: Example B pre-emergence herbicidal test, ECHCG; settings: Echinochloa crus-galli, 312 h, rate 250 g/ha, evaluated after 13 days, 100=total damage to plant, 0=no damage to plant
Description: as §1

Avena fatua (AVEFA) [4] = assay: Example B pre-emergence herbicidal test, AVEFA; settings: Avena fatua, 312 h, rate 250 g/ha, evaluated after 13 days, 100=total damage to plant, 0=no damage to plant
Description: as §1

Lolium perenne (LOLPE) [5] = assay: Example B post-emergence herbicidal test, LOLPE; settings: Lolium perenne, 312 h, rate 250 g/ha, evaluated after 13 days, scale 0-100, read-out: Post-emergence activity LOLPE (100=total damage to plant; 0=no damage to plant)
Description: as §1, with “Post-Emergence” for “Pre-Emergence”

[6] = tested on: Alopecurus myosuroides (ALOMY); assay: Example B post-emergence herbicidal test, ALOMY; settings: Alopecurus myosuroides, 312 h, rate 250 g/ha, evaluated after 13 days, scale 0-100, read-out: Post-emergence activity ALOMY (100=total damage to plant; 0=no damage to plant)
Description: as §1, with “Post-Emergence” for “Pre-Emergence”

[7] = tested on: Echinochloa crus-galli (ECHCG); assay: Example B post-emergence herbicidal test, ECHCG; settings: Echinochloa crus-galli, 312 h, rate 250 g/ha, evaluated after 13 days, scale 0-100, read-out: Post-emergence activity ECHCG (100=total damage to plant; 0=no damage to plant)
Description: as §1, with “Post-Emergence” for “Pre-Emergence”

Avena fatua (AVEFA) [8] = assay: Example B post-emergence herbicidal test, AVEFA; settings: Avena fatua, 312 h, rate 250 g/ha, evaluated after 13 days, scale 0-100, read-out: Post-emergence activity AVEFA (100=total damage to plant; 0=no damage to plant)
Description: as §1, with “Post-Emergence” for “Pre-Emergence”

| SMILES | pest or weed control at 250 g/ha (Lolium perenne (LOLPE) [1]) [%] | pest or weed control at 250 g/ha [2] [%] | pest or weed control at 250 g/ha [3] [%] | pest or weed control at 250 g/ha (Avena fatua (AVEFA) [4]) [%] | pest or weed control at 250 g/ha (Lolium perenne (LOLPE) [5]) [%] | pest or weed control at 250 g/ha [6] [%] | pest or weed control at 250 g/ha [7] [%] | pest or weed control at 250 g/ha (Avena fatua (AVEFA) [8]) [%] |
| --- | --- | --- | --- | --- | --- | --- | --- | --- |
| CCSC(=O)OC1=C(c2c(C)cc(C)cc2C)C(=O)C(CC2CCOC2)C1 (centres unmarked) [Compound P30] | 100 | 100 | 80 | 90 | 100 | 100 | 90 | 100 |
| Cc1cc(C)c(C2=C(OC(=O)OC(C)C)CC(CC3CCOC3)C2=O)c(C)c1 (centres unmarked) [Compound P31] | 100 | 100 | 100 | 90 | 100 | 90 | 100 | 90 |
| Cc1cc(C)c(C2=C(OC(=O)C(C)(C)C)CC(CCC3CCOCC3)C2=O)c(C)c1 (centres unmarked) [Compound P34] | 100 | 90 | 100 | 90 | 100 | 80 | 60 | 90 |
| Cc1cc(C)c(C2=C(OC(=O)C(C)(C)C)CC(CC3CCCOC3)C2=O)c(C)c1 (centres unmarked) [Compound P37] | 100 | 100 | 70 | 70 | 90 | 90 | 90 | 90 |
| CC(=O)OC1=C(c2c(C)cc(C)cc2C)C(=O)/C(=C/C2CCN(C(C)=O)C2)C1 (centres unmarked) [Compound P42] | 40 | 30 | 30 | 0 | 40 | 60 | 70 | 70 |
| COC(=O)OC1=C(c2c(C)cc(C)cc2C)C(=O)C(CC2CCOCC2)C1 (centres unmarked) [Compound P45] | 100 | 100 | 100 | 100 | 100 | 100 | 90 | 100 |
| Cc1cc(C)c(C2=C(OS(C)(=O)=O)C/C(=C\C3CCN(S(C)(=O)=O)C3)C2=O)c(C)c1 (centres unmarked) [Compound P46] | 90 | 70 | 100 | 60 | 80 | 90 | 70 | 90 |
| CCSC(=O)OC1=C(c2c(C)cc(C)cc2C)C(=O)/C(=C/C2CCN(C(=O)SCC)C2)C1 (centres unmarked) [Compound P47] | 60 | 30 | 60 | 50 | 60 | 70 | 50 | 60 |
| Cc1cc(C)c(C2=C(OC(=O)c3ccccc3)C/C(=C\C3CCN(C(=O)c4ccccc4)C3)C2=O)c(C)c1 (centres unmarked) [Compound P48] | 80 | 70 | 40 | 60 | 90 | 90 | 90 | 100 |
| Cc1cc(C)c(C2=C(OC(=O)C(C)(C)C)CC(CC3COCCO3)C2=O)c(C)c1 (centres unmarked) [Compound P49] | 100 | 80 | 100 | 60 | 100 | 80 | 100 | 90 |
| CON1CCC(CC2CC(OC(C)=O)=C(c3c(C)cc(C)cc3C)C2=O)CC1 (centres unmarked) [Compound P50] | 100 | 100 | 100 | 100 | 100 | 100 | 100 | 100 |
| CON1CCC(CC2CC(OC(=O)C(C)(C)C)=C(c3c(C)cc(C)cc3C)C2=O)CC1 (centres unmarked) [Compound P51] | 100 | 100 | 100 | 100 | 100 | 100 | 100 | 100 |
| Cc1cc(C)c(C2=C(OC(=O)OC(C)(C)C)C/C(=C\C3CCN(C(=O)OC(C)(C)C)CC3)C2=O)c(C)c1 [Compound P53] | 100 | 60 | 90 | 70 | 20 | 60 | 70 | 40 |
| Cc1cc(C)c(C2=C(OC(=O)OC(C)(C)C)CC(CC3CCN(C(=O)OC(C)(C)C)CC3)C2=O)c(C)c1 (centres unmarked) [Compound P54] | 100 | 80 | 100 | 70 | 40 | 70 | 80 | 50 |
| CON1CCC(CC2CC(OC(=O)c3ccccc3)=C(c3c(C)cc(C)cc3C)C2=O)CC1 (centres unmarked) [Compound P55] | 100 | 100 | 100 | 90 | 100 | 90 | 100 | 100 |
| Cc1cc(C)c(C2=C(OC(=O)C3CC3)CC(CC3CCN(C(=O)C4CC4)C3)C2=O)c(C)c1 (centres unmarked) [Compound P57] | 60 | 50 | 30 | 70 | 60 | 80 | 70 | 80 |
| Cc1cc(C)c(C2=C(OC(=O)C(C)C)CC(CC3CCN(C(=O)C(C)C)C3)C2=O)c(C)c1 (centres unmarked) [Compound P58] | 80 | 70 | 80 | 70 | 90 | 90 | 70 | 90 |
| Cc1cc(C)c(C2=C(OC(=O)C(C)(C)C)CC(CC3CCN(C(=O)C(C)(C)C)C3)C2=O)c(C)c1 (centres unmarked) [Compound P59] | 80 | 50 | 70 | 30 | 80 | 90 | 70 | 80 |
| Cc1cc(C)c(C2=C(OC(=O)C(C)(C)CCl)CC(CC3CCN(C(=O)C(C)(C)CCl)C3)C2=O)c(C)c1 (centres unmarked) [Compound P60] | 80 | 30 | 50 | 0 | 70 | 80 | 40 | 80 |
